Experimental data from patent publication US4487761A, “Dopamine β-hydroxylase inhibitors” (Merck & Co., Inc., priority 1982, dated 1984).

Target: T1, Dopamine β-hydroxylase (Bos taurus, UniProt P15101)
T1 construct: Dopamine β-hydroxylase was obtained from beef adrenal glands; from tissue; host or cells: beef adrenal glands
T1 sequence (P15101 1-610): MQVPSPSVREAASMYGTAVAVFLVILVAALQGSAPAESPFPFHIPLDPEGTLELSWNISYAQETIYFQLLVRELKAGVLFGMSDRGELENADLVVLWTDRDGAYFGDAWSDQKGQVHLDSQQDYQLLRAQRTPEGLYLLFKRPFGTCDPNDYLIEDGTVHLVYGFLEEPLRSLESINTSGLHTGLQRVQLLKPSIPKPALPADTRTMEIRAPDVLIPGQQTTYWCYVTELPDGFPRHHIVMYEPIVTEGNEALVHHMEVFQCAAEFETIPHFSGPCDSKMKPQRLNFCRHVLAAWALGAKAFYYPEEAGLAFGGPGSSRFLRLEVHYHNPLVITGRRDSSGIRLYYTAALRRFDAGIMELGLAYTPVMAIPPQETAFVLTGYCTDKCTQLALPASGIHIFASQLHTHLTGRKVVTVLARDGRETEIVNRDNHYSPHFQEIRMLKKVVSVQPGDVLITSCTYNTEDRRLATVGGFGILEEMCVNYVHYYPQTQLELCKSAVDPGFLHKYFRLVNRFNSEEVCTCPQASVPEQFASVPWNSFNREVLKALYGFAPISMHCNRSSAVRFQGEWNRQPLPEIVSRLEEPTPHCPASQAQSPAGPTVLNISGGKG
Assay: Dopamine β-Hydroxylase Inhibition Assay
Type: biochemical
Conditions: 5 mM tyramine, pH 5.5, 37° C., 10 minutes; enzyme from beef adrenal glands; read-out: I50 (inhibition median) (converted)
Experimental: Dopamine β-hydroxylase was obtained from beef adrenal glands. Minced adrenals were homogenized with 0.025M potassium phosphate buffer (pH--6.4) and centrifuged. The supernatant was adjusted to a final concentration of 1% Triton X-100 (Calbiochem. Inc.) by the addition of one-fourth volume of a 5% Triton X-100 solution and stirred at room temperature for 30 minutes. The Triton X-100 treated supernatant was centrifuged, and fractionated with a 66% aqueous ammonium sulfate solution. The resulting precipitate was homogenized in 0.025M potassium phosphate buffer (pH=6.4) and dialyzed. The dialysate was applied to a DE-52 Cellulose Column (Whatman Co.), pre-equilibrated with 0.005M potassium phosphate buffer (pH=6.4), and preloaded with about 2 cm of acid-washed activated carbon, located directly above the cellulose resin. […]
The assay for the dopamine β-hydroxylase inhibition was carried out in a 1 ml incubation mixture containing 5 mM tyramine (freashly prepared), 1.5 mM ascorbic acid (prepared monthly), 0.4 mM sodium fumarate, 0.045 mM pargyline, catalase ([…] per ml, 500 units) and 0.065M sodium acetate buffer, pH 5.5. […] The optical absorbance of the organic phase was measured at 280 nm. […]

| Compound | IC50 [nM] |
| --- | --- |
| Cc1nc(O)c(O)cc1O [Compound II] | ~262 |
| Cc1nc(O)c(O)c(CO)c1O [Compound I] | ~158 |
